Patent US20150273027A1, “LIQUID PHARMACEUTICAL COMPOSITION OF FACTOR VII POLYPEPTIDE” (Novo Nordisk Healthcare AG, priority 2012, published 2015)
Where a chain is given by its changes, count along the chain named. Each block holds one compound with its values, some of them ahead of it.

How the values were obtained:
[1] = test system: tail bleeding in F8-KO mice; experiment: Tail bleeding in FVIII knock out (F8-KO) mice; format: in vivo; settings: dose 3 mg/kg i.v.
Text: The biological in vivo efficacy and potency of recombinant factor VIIa (rFVIIa) co-formulated with the active site stabilizing agent with Formula I in the molar ratio 1:[…]; 2.5; 5; […] in FVIII knock out (F8-KO) mice (Bi L, Sarkar R, Naas T, Lawler A M, Pain J, Shumaker S L et al. Further characterization of factor VIII-deficient mice created by gene targeting: RNA and protein studies. Blood 1996; 88:3446-).
Tail bleeding was initiated in Isofluran anesthetized F8-KO mice by transection of 4 mm of the tip of the tail 5 min after dosing rFVIIa, rFVIIa:active site stabilizing agent (1:1.75) or vehicle iv in a tail vein in the mice. Bleeding time and blood loss was measured for a 30 minutes period in 37° C. saline as described elsewhere (Elm T; Karpf D M; Øvlisen K; Pelzer H; Ezban M; Kjalke M; Tranholm M. Pharmacokinetics and pharmacodynamics of a new recombinant FVIII (N8) in haemophilia A mice. Haemophilia, 2012; 18 (1), 139-145). […] The bleeding time vs dose of rFVIIa and rFVIIa:active site stabilizing agent (1:1.75) show very similar dose response curves.
The in vivo effect of serum free recombinant FVIIa (SF-rFVIIa) and SF-rFVIIa co-formulated with the active site stabilizing agent set forth in Formula I in the molar ratio 1:2.5 was studied with the same design in the tail bleeding model in F8-KO mice at the concentration 1; 2.5; 5; 10 and 15 mg/kg. […]

rFVIIa = molecular target: T1, rFVIIa (Homo sapiens, UniProt P08709); experiment: Isothermal titration calorimetry (iTC200) binding to rFVIIa; settings: for Kd: binding buffer
T1 construct: made in house
T1 sequence (P08709 213-466 limits assumed): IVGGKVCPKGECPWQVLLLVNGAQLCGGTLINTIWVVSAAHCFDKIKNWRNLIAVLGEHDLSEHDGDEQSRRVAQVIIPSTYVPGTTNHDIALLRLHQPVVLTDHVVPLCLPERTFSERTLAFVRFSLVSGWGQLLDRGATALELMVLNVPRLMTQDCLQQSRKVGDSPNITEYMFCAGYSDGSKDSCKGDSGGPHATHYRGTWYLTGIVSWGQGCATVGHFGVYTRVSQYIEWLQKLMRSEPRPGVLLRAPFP
T1 sequence (P08709 61-212 limits assumed): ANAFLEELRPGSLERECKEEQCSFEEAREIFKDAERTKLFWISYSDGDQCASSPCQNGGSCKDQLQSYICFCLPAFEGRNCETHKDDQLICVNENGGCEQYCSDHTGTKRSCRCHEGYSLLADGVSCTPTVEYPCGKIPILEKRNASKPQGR
Procedure: (§1) All proteases were dialyzed extensively in binding buffer: 10 mM HEPES pH 7.4, 150 mM NaCl, 0.005% v/v Surfactant P20, 5 mM CaCl2. All binding experiments were carried out in binding buffer unless otherwise indicated. The active site stabilizing agent set forth Formula I was dissolved in 50 mM Tris pH 8.0 to a final concentration of 9 mM giving a yellow colour. Isothermal titration calorimetry (iTC200, from GE healthcare) was chosen as the method of choice for determining binding parameters. Each iTC200 run involved filling the cell with the protease (approximately 200 μL) and the syringe with the active site stabilizing agent (approximately 40 μL). Temperature was set as required and the protease was allowed to equilibrate under given experimental conditions (approximately 10 minutes). Typically 17-20 injections (of 2-2.5 μL) of active site stabilizing agent into the cell, containing protease, were performed. The first injection was always of 0.2 μL and was discarded from the final data analysis. Stirring speed was set between 700-1000 rpm. Filter period for data collection was 5 sec with a high feedback mode setting. Each titration was spaced by 120 sec. Raw data was processed to set the baseline, integrate each peak to get a final isotherm. This isotherm was fit to a single-site model to yield Kd, stoichiometry (n), ΔH, and ΔS values to complete characterization of binding of active site stabilizing agents to a protease. Each binding experiment was repeated at least twice. Tables 14, 15 and 16 summarizes binding of active site binding agents to SF-FVIIa and Vatreptacog alfa under varying solution conditions as described below.

SF-rFVIIa = molecular target: T2, SF-rFVIIa (Homo sapiens, UniProt P08709); experiment: Isothermal titration calorimetry (iTC200) binding to SF-rFVIIa; settings: for Kd: SF-rFVIIa
T2 construct: made in house
T2 sequence (P08709 213-466 limits assumed): T1 sequence (P08709 213-466 limits assumed)
T2 sequence (P08709 61-212 limits assumed): T1 sequence (P08709 61-212 limits assumed)
Procedure: as §1

V158D/E296V/M298Q-FVIIa = molecular target: T3, V158D/E296V/M298Q-FVIIa (Homo sapiens, UniProt P08709, E356V/M358Q/V218D); experiment: Isothermal titration calorimetry (iTC200) binding to V158D/E296V/M298Q-FVIIa
T3 construct: made in house
T3 sequence (P08709 213-466 V218D/E356V/M358Q limits assumed): T1 sequence (P08709 213-466 limits assumed) with V6D, E144V, M146Q
T3 sequence (P08709 61-212 limits assumed): T1 sequence (P08709 61-212 limits assumed)
Procedure: as §1

[2] = iTC200, binding buffer pH 7.4, 20° C.

Compound: Vatreptacog Alfa: FVIIa sequence variant, V158D/E296V/M298Q-FVII, three amino acids of the wild-type human sequence replaced
In vivo tail bleeding as blood loss, mean [1]: 1207 nmol haemoglobin

fold difference in binding at 20° C. and 37° C. (rFVIIa): 23 fold
Kd (rFVIIa; 20° C.): 12.9 nM
Kd (rFVIIa; 37° C.): 296 nM
fold difference in binding at 20° C. and 37° C. (SF-rFVIIa; SF-FVIIa): 17 fold
Kd (SF-rFVIIa; binding buffer, 37° C.): 334 nM
Kd (SF-rFVIIa; [2]): 20 nM
Kd (SF-rFVIIa; pH 5.5, 20° C.): 1560 nM
Kd (SF-rFVIIa; pH 6.5, 20° C.): 43 nM
Kd (SF-rFVIIa; pH 8.5, 20° C.): 130 nM
fold difference in binding at 20° C. and 37° C. (V158D/E296V/M298Q-FVIIa): 21 fold
Kd (V158D/E296V/M298Q-FVIIa; binding buffer pH 7.4, 20° C.): 2.18 nM
Kd (V158D/E296V/M298Q-FVIIa; binding buffer, 37° C.): 46 nM
Kd (V158D/E296V/M298Q-FVIIa; pH 5.5, 20° C.): 77 nM
Kd (V158D/E296V/M298Q-FVIIa; pH 6.5, 20° C.): 9 nM
Kd (V158D/E296V/M298Q-FVIIa; pH 8.5, 20° C.): 6 nM
Compound: N=C(N)c1ccc2[nH]c(-c3cc(CC(=O)N[C@@H](CC(=O)O)C(=O)O)cc(-c4cc(S(N)(=O)=O)ccc4O)c3O)nc2c1 [Formula I, (S)-2-{2-[5-(5-carbamimidoyl-1H-benzoimidazol-2-yl)-6,2′-dihydroxy-5′-sulfamoyl-biphenyl-3-yl]acetylamino}-succinic acid]

Kd (SF-rFVIIa; [2]): 12 nM
Compound: N=C(N)c1ccc2[nH]c(-c3cc(CC(=O)N[C@H](CC(=O)O)C(=O)O)cc(-c4cc(S(N)(=O)=O)ccc4O)c3O)nc2c1 [Formula II, (R)-2-{2-[5-(5-carbamimidoyl-1H-benzoimidazol-2-yl)-6,2′-dihydroxy-5′-sulfamoyl-biphenyl-3-yl]acetylamino}-succinic acid]

Kd (SF-rFVIIa; [2]): 1780 nM
Compound: COc1cccc([C@H](C)NC(=O)CNC(=O)Nc2ccc(C(=N)N)cc2)c1 [Formula A, S-2-[3-(4-Carbamimidoylphenyl)ureido]-N-[1-(3-methoxyphenyl)-ethyl]-acetamide, reference compound]
